Laboratory results published in US11434212B2, “Bicyclic compound as a caspase inhibitor” (CHIA TAI TIANQING PHARMACEUTICAL GROUP CO., LTD., priority 2017, dated 2022).

Tests used:
Type in all cases: biochemical
Conditions in all cases: fluorogenic substrate 50 μM; test concentrations 1000 nM to 0.32 nM
Caspase-1 = target: T1, Caspase-1 (Homo sapiens, UniProt P29466); test: In vitro inhibitory activity on Caspase-1 (BioVision Caspase-1 Inhibitor Screening Kit)
T1 construct: purchased BioVision K151-100
T1 sequence (P29466 120-297 limits assumed): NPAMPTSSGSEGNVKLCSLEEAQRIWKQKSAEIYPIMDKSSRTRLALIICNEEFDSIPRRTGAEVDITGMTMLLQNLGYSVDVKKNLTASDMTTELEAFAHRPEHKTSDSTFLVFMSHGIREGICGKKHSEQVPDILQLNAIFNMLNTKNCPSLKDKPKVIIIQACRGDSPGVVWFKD
T1 sequence (P29466 317-404 limits assumed): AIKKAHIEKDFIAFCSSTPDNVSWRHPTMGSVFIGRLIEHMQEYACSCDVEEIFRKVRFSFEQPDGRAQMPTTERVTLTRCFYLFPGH
Experimental: (§1) Caspase Inhibitor Screening Kit for BioVision was used in this experiment to test the inhibitory activity of the test compounds on Caspase.
Caspase-1 Inhibitor Screening Kit (BioVision #K151-100)
(§2) Note: Each caspase enzymatic experiment uses the reagents in corresponding kit thereof. Each enzyme was dissolved in 550 μl of the corresponding 2× reaction buffer, sub-packed and stored at −80° C., respectively.
(§3) 1) The compound was diluted to a 200*test concentration with DMSO via the multiple dilution, then to a 2*test concentration with ddH2O, and added to a 384-well experimental plate at 12.5 μl per well. Test compounds and control compounds were tested at 6 concentration points, test concentrations ranging from 1000 nM to 0.32 nM. The ddH2O containing 1% DMSO was added to the 0% inhibition control well, and a high concentration of the control compound was added to the 100% inhibition control well (final concentration: 5 μM).
(§4) 2) 2× reaction buffer containing 10 mM DTT was prepared. The enzyme caspase stock solution was diluted 5-fold with 2× reaction buffer containing 10 mM DTT and added to a 384-well experimental plate at 6.25 μl per well. After being mixed, the enzyme and compounds were incubated at 37° C. for 30 minutes.
(§5) 3) The fluorogenic substrate of the enzyme caspase was diluted 5-fold with 2× reaction buffer containing 10 mM DTT, and then added to a 384-well experimental plate at 6.25 μl per well. The total reaction volume was 25 μl, the final concentration of the substrate was 50 μM, and the final concentration of DMSO was 0.5%. After the substrate was added, the 384-well experimental plate was incubated at 37° C. for 30 minutes.
(§6) 4) The fluorescence intensity (excitation light wavelength was 400 nm, emission light wavelength was 505 nm) was measured by using a multi-function microplate reader. Fluorescence intensity was used to calculate the inhibitory effect of the compounds on Caspase. GraphPad Prism software was used for fitting compound inhibition curves and calculating IC50 values.

Caspase-3 = target: T2, Caspase-3 (Homo sapiens, UniProt P42574); test: In vitro inhibitory activity on Caspase-3 (BioVision Caspase-3 Inhibitor Screening Kit)
T2 construct: purchased BioVision K153-100
T2 sequence (P42574 29-175 limits assumed): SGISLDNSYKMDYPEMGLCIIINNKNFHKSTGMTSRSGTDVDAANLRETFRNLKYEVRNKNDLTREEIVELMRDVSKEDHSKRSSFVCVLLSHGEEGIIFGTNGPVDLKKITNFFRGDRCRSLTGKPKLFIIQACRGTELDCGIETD
T2 sequence (P42574 176-277 limits assumed): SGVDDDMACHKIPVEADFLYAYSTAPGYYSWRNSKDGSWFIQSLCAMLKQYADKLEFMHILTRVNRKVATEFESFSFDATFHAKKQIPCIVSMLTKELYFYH
Experimental: as §1
Caspase-3 Inhibitor Screening Kit (BioVision #K153-100)
as §2, §3, §4, §5, §6

Caspase-8 = target: T3, Caspase-8 (Homo sapiens, UniProt Q14790); test: In vitro inhibitory activity on Caspase-8 (BioVision Caspase-8 Inhibitor Screening Kit)
T3 construct: purchased BioVision K158-100
T3 sequence (Q14790 217-374 limits assumed): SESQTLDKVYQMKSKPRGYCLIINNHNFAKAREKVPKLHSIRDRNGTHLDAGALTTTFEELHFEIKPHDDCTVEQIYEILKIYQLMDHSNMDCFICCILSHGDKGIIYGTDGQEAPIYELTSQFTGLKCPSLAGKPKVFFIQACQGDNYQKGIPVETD
T3 sequence (Q14790 385-479 limits assumed): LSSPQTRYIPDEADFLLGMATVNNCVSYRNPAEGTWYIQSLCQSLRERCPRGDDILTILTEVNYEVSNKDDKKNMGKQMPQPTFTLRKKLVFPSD
Experimental: as §1
Caspase-8 Inhibitor Screening Kit (BioVision #K158-100)
as §2, §3, §4, §5, §6

Row | Structure (SMILES) | IC50 (Caspase-1) [µM] | IC50 (Caspase-3) [µM] | IC50 (Caspase-8) [µM]
1 | C[C@H](NC(=O)c1coc(-c2ccccc2)n1)C(=O)N[C@@H](CC(=O)O)C(=O)COc1c(F)c(F)cc(F)c1F [Example 7] | 0.0069 | 0.0202 | 0.03
2 | C[C@H](NC(=O)c1cc(-c2ccccc2C(F)(F)F)on1)C(=O)N[C@@H](CC(=O)O)C(=O)COc1c(F)c(F)cc(F)c1F [Example 11] | 0.0092 | 0.03 | 0.0226
3 | C[C@H](NC(=O)c1c[nH]c(-c2ccccc2)n1)C(=O)N[C@@H](CC(=O)O)C(=O)COc1c(F)c(F)cc(F)c1F [Example 3] | 0.0048 | 0.024 | 0.0259
4 | C[C@H](NC(=O)c1ncc(-c2ccccc2)s1)C(=O)N[C@@H](CC(=O)O)C(=O)COc1c(F)c(F)cc(F)c1F [Example 2] | 0.0053 | 0.0296 | 0.0246
5 | C[C@H](NC(=O)c1cc(-c2ccccc2F)n[nH]1)C(=O)N[C@@H](CC(=O)O)C(=O)COc1c(F)c(F)cc(F)c1F [Example 5] | 0.0039 | 0.0137 | 0.0168
6 | C[C@H](NC(=O)c1cc(-c2ccccc2)n[nH]1)C(=O)N[C@@H](CC(=O)O)C(=O)COc1c(F)c(F)cc(F)c1F [Example 4] | 0.0041 | 0.0114 | 0.0117
7 | C[C@H](NC(=O)c1cc(-c2ccc(Cl)cc2)on1)C(=O)N[C@@H](CC(=O)O)C(=O)COc1c(F)c(F)cc(F)c1F [Example 6] | 0.006 | 0.0245 | 0.0199
8 | C[C@H](NC(=O)c1cc(-c2cccc(Cl)c2)on1)C(=O)N[C@@H](CC(=O)O)C(=O)COc1c(F)c(F)cc(F)c1F [Example 10] | 0.0066 | 0.022 | 0.0163

Next, values leading:

Row | IC50 (Caspase-1) [µM] | IC50 (Caspase-3) [µM] | IC50 (Caspase-8) [µM] | Structure (SMILES)
9 | 0.0055 | 0.0218 | 0.018 | C[C@H](NC(=O)c1cc(-c2ccccc2)no1)C(=O)N[C@@H](CC(=O)O)C(=O)COc1c(F)c(F)cc(F)c1F [Example 8]
10 | 0.0042 | 0.0095 | 0.0314 | C[C@H](NC(=O)c1cc(-c2ccccc2Cl)no1)C(=O)N[C@@H](CC(=O)O)C(=O)COc1c(F)c(F)cc(F)c1F [Example 17]
11 | 0.0142 | 0.0444 | 0.0232 | C[C@H](NC(=O)c1cc(-c2ccccc2)on1)C(=O)N[C@@H](CC(=O)O)C(=O)COc1c(F)c(F)cc(F)c1F [Example 9]
12 | 0.0067 | 0.021 | 0.0179 | C[C@H](NC(=O)c1cc(-c2ccccc2F)on1)C(=O)N[C@@H](CC(=O)O)C(=O)COc1c(F)c(F)cc(F)c1F [Example 12]
13 | 0.0075 | 0.0261 | 0.0621 | C[C@H](NC(=O)c1cc(-c2ccccc2Cl)on1)C(=O)N[C@H](CC(=O)O)C(=O)COc1c(F)c(F)cc(F)c1F [Example 18]
